Assay results published in PubChem BioAssay AID2060497 (Molecular Pharmacology Branch, DTP, NCI, 2025).

System: 317291-083-R-J1-PDC complex spheroids, viability
Assay: Anticancer human tumor 317291-083-R-J1-PDC patient-derived soft tissue sarcoma cell line growth inhibition [GQUAD]
Settings: for IC50: curve of first compound; for viability, T/C: stronger effect = lower value
Procedure, shortened: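 Tumor cells were grown as complex spheroids with HUVEC endothelial cells and mesenchymal stem cells as stroma. G-quadruplex stabilizers were combined with targeted agents over half-log dilutions from near the clinical Cmax, or from 10 microM.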

[1] = second compound 0.0316 µM, first compound 0.0316 µM
[2] = second compound 0.0316 µM, first compound 0.1 µM
[3] = second compound 0.0316 µM, first compound 0.316 µM
[4] = second compound 0.0316 µM, first compound 1 µM
[5] = second compound 0.0316 µM, first compound 3.16 µM
[6] = second compound 0.0316 µM, first compound 10 µM
[7] = second compound 0.1 µM, first compound 0.0316 µM
[8] = second compound 0.1 µM, first compound 0.1 µM
[9] = second compound 0.1 µM, first compound 0.316 µM
[10] = second compound 0.1 µM, first compound 1 µM
[11] = second compound 0.1 µM, first compound 3.16 µM
[12] = second compound 0.1 µM, first compound 10 µM
[13] = second compound 0.316 µM, first compound 0.0316 µM
[14] = second compound 0.316 µM, first compound 0.1 µM
[15] = second compound 0.316 µM, first compound 0.316 µM
[16] = second compound 0.316 µM, first compound 1 µM
[17] = second compound 0.316 µM, first compound 3.16 µM
[18] = second compound 0.316 µM, first compound 10 µM
[19] = second compound 1 µM, first compound 0.0316 µM
[20] = second compound 1 µM, first compound 0.1 µM
[21] = second compound 1 µM, first compound 0.316 µM
[22] = second compound 1 µM, first compound 1 µM
[23] = second compound 1 µM, first compound 3.16 µM
[24] = second compound 1 µM, first compound 10 µM
[25] = second compound 3.16 µM, first compound 0.0316 µM
[26] = second compound 3.16 µM, first compound 0.1 µM
[27] = second compound 3.16 µM, first compound 0.316 µM
[28] = second compound 3.16 µM, first compound 1 µM
[29] = second compound 3.16 µM, first compound 3.16 µM
[30] = second compound 3.16 µM, first compound 10 µM
[31] = second compound 10 µM, first compound 0.0316 µM
[32] = second compound 10 µM, first compound 0.1 µM
[33] = second compound 10 µM, first compound 0.316 µM
[34] = second compound 10 µM, first compound 1 µM
[35] = second compound 10 µM, first compound 3.16 µM
[36] = second compound 10 µM, first compound 10 µM
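Further: spheroids exposed to compounds for one week before readout.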
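Wherever viability, T/C is given: percent viability relative to DMSO vehicle wells taken as 100%.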

`CC1COCCN1c1cc(-c2ccnn2C)c2ccnc(-c3ccn[nH]3)c2n1` (stereo not drawn) + Cc1[nH]c2ccc(F)cc2c1-c1nc2c3cccnc3c3ncccc3c2[nH]1 gave an IC50 (second compound 0.0316 µM) of 88.8 nM, an IC50 (second compound 0.1 µM) of 75.1 nM and an IC50 (second compound 0.316 µM) of 64.4 nM. For the same molecule, the IC50 (second compound 1 µM) was 62.5 nM, the IC50 (second compound 3.16 µM) was 65.4 nM and the IC50 (second compound 10 µM) was 70.9 nM. The viability, T/C [1] was 87.9%, the viability, T/C [2] was 45.6% and the viability, T/C [3] was 16.4%. It also gave a viability, T/C [4] of 11.7%, a viability, T/C [5] of 13% and a viability, T/C [6] of 15.1%. The viability, T/C [7] was 89.4%, the viability, T/C [8] was 36.9% and the viability, T/C [9] was 14.7%. The viability, T/C [10] was 13.8%, the viability, T/C [11] was 13.6% and the viability, T/C [12] was 11.5%. The viability, T/C [13] was 77.7%, the viability, T/C [14] was 33% and the viability, T/C [15] was 13.8%. For the same molecule, the viability, T/C [16] was 14.1%, the viability, T/C [17] was 11.5% and the viability, T/C [18] was 14.4%. The viability, T/C [19] was 76.1%, the viability, T/C [20] was 31.9% and the viability, T/C [21] was 18%. The viability, T/C [22] was 14.8%, the viability, T/C [23] was 15.3% and the viability, T/C [24] was 10.1%. It also gave a viability, T/C [25] of 60.7%, a viability, T/C [26] of 43.7% and a viability, T/C [27] of 13.3%. The viability, T/C [28] was 9.76%, the viability, T/C [29] was 9.63% and the viability, T/C [30] was 14.1%. It also gave a viability, T/C [31] of 89%, a viability, T/C [32] of 33.4% and a viability, T/C [33] of 13.8%. The viability, T/C [34] was 8.91%, the viability, T/C [35] was 10% and the viability, T/C [36] was 12.1%.

Molecule `CC(C)(O)C1CCC(Nc2ccc3ncc(-c4cccc(C(F)(F)F)c4)n3n2)CC1` (stereo not drawn) + Cc1[nH]c2ccc(F)cc2c1-c1nc2c3cccnc3c3ncccc3c2[nH]1 has an IC50 (second compound 0.0316 µM) of 647 nM, an IC50 (second compound 0.1 µM) of 576 nM and an IC50 (second compound 0.316 µM) of 421 nM. The IC50 (second compound 1 µM) was 114 nM, the IC50 (second compound 3.16 µM) was < 31.6 nM and the IC50 (second compound 10 µM) was < 31.6 nM. It also gave a viability, T/C [1] of 102%, a viability, T/C [2] of 102% and a viability, T/C [3] of 85.9%. The viability, T/C [4] was 28.2%, the viability, T/C [5] was 0.62% and the viability, T/C [6] was 0.37%. The viability, T/C [7] was 91%, the viability, T/C [8] was 85% and the viability, T/C [9] was 77.1%. For the same molecule, the viability, T/C [10] was 25.4%, the viability, T/C [11] was 0.16% and the viability, T/C [12] was 0.74%. The viability, T/C [13] was 61.8%, the viability, T/C [14] was 70.9% and the viability, T/C [15] was 61.6%. It also gave a viability, T/C [16] of 14.3%, a viability, T/C [17] of 0.22% and a viability, T/C [18] of 0.17%. The viability, T/C [19] was 58.1%, the viability, T/C [20] was 43% and the viability, T/C [21] was 45.1%. It also gave a viability, T/C [22] of 8.74%, a viability, T/C [23] of 0.32% and a viability, T/C [24] of 0.16%. For the same molecule, the viability, T/C [25] was 29.5%, the viability, T/C [26] was 19.8% and the viability, T/C [27] was 24.1%. The viability, T/C [28] was 7.5%, the viability, T/C [29] was 0.94% and the viability, T/C [30] was 0.2%. The viability, T/C [31] was 41%, the viability, T/C [32] was 38.6% and the viability, T/C [33] was 44.5%. The viability, T/C [34] was 14.2%, the viability, T/C [35] was 0.55% and the viability, T/C [36] was 0.82%.

Molecule `O=C(NO)c1cnc(N2CCN(S(=O)(=O)c3ccc4ccccc4c3)CC2)nc1` + Cc1[nH]c2ccc(F)cc2c1-c1nc2c3cccnc3c3ncccc3c2[nH]1 has an IC50 (second compound 0.0316 µM) of 153 nM, an IC50 (second compound 0.1 µM) of 211 nM and an IC50 (second compound 0.316 µM) of 113 nM. The IC50 (second compound 1 µM) was 60.2 nM, the IC50 (second compound 3.16 µM) was < 31.6 nM and the IC50 (second compound 10 µM) was < 31.6 nM. The viability, T/C [1] was 99.5%, the viability, T/C [2] was 71.4% and the viability, T/C [3] was 13.9%. The viability, T/C [4] was 0.16%, the viability, T/C [5] was 0.07% and the viability, T/C [6] was 0.9%. It also gave a viability, T/C [7] of 117%, a viability, T/C [8] of 102% and a viability, T/C [9] of 22.1%. For the same molecule, the viability, T/C [10] was 0.09%, the viability, T/C [11] was 0.03% and the viability, T/C [12] was 0.45%. For the same molecule, the viability, T/C [13] was 66.5%, the viability, T/C [14] was 55.2% and the viability, T/C [15] was 6.53%. The viability, T/C [16] was 0.09%, the viability, T/C [17] was 0.04% and the viability, T/C [18] was 0.16%. For the same molecule, the viability, T/C [19] was 60.6%, the viability, T/C [20] was 41.6% and the viability, T/C [21] was 10.5%. For the same molecule, the viability, T/C [22] was 0.06%, the viability, T/C [23] was 0.09% and the viability, T/C [24] was 0.07%. The viability, T/C [25] was 42.7%, the viability, T/C [26] was 19.4% and the viability, T/C [27] was 3.52%. The viability, T/C [28] was 0.44%, the viability, T/C [29] was 0.18% and the viability, T/C [30] was 0.72%. It also gave a viability, T/C [31] of 42.9%, a viability, T/C [32] of 35.3% and a viability, T/C [33] of 4.65%. The viability, T/C [34] was 0.13%, the viability, T/C [35] was 0.22% and the viability, T/C [36] was 0.17%.

In the case of `C=CC(=O)N1CCN(c2nc(=O)n(-c3c(C)ccnc3C(C)C)c3nc(-c4c(O)cccc4F)c(F)cc23)C(C)C1` (stereo not drawn) + Cc1cnc(CNC(=O)c2c(=O)c3ccc(N4CCCN(C)CC4)nc3n3c2sc2ccccc23)cn1, the IC50 (second compound 0.0316 µM) is reported as > 10000 nM, the IC50 (second compound 0.1 µM) is reported as 8780 nM and the IC50 (second compound 0.316 µM) is reported as 4430 nM. The IC50 (second compound 1 µM) was 153 nM, the IC50 (second compound 3.16 µM) was < 31.6 nM and the IC50 (second compound 10 µM) was < 31.6 nM. The viability, T/C [1] was 101%, the viability, T/C [2] was 84.2% and the viability, T/C [3] was 101%. It also gave a viability, T/C [4] of 92.8%, a viability, T/C [5] of 86.2% and a viability, T/C [6] of 65%. The viability, T/C [7] was 79.1%, the viability, T/C [8] was 88.6% and the viability, T/C [9] was 91%. It also gave a viability, T/C [10] of 95.8%, a viability, T/C [11] of 70.1% and a viability, T/C [12] of 47.5%. The viability, T/C [13] was 65.7%, the viability, T/C [14] was 68.7% and the viability, T/C [15] was 54.4%. It also gave a viability, T/C [16] of 63.7%, a viability, T/C [17] of 46.9% and a viability, T/C [18] of 47.3%. For the same molecule, the viability, T/C [19] was 59.1%, the viability, T/C [20] was 61.9% and the viability, T/C [21] was 31.9%. For the same molecule, the viability, T/C [22] was 27.4%, the viability, T/C [23] was 30.9% and the viability, T/C [24] was 14.8%. The viability, T/C [25] was 21.3%, the viability, T/C [26] was 21.2% and the viability, T/C [27] was 41.6%. It also gave a viability, T/C [28] of 12.3%, a viability, T/C [29] of 13.8% and a viability, T/C [30] of 14.6%. It also gave a viability, T/C [31] of 22%, a viability, T/C [32] of 63.3% and a viability, T/C [33] of 22.2%. The viability, T/C [34] was 13.2%, the viability, T/C [35] was 35.4% and the viability, T/C [36] was 6.85%.
